What was measured:
Escherichia coli [1] = experiment: Activity of Escherichia coli UDP-galactopyranose mutase by HPLC
Escherichia coli [2] = experiment: Ratio of Kcat to Km of Escherichia coli UDP-galactopyranose mutase; set-up: unit not given here
Escherichia coli [3] = experiment: Inhibition of Escherichia coli UDP-galactopyranose mutase assessed as inhibition of conversion to UDP-galactopyranose; details: concentration not given here
[4] = Binding affinity to Escherichia coli UDP-galactopyranose mutase

Row | SMILES | Km (Escherichia coli [1]) [µM] | kcat (Escherichia coli [1]) [s⁻¹] | kcat/Km (Escherichia coli [2]) | inhibition (Escherichia coli [3]) [%] | Kd [4] [µM]
1 | O=c1ccn([C@@H]2O[C@H](COP(=O)(O)OP(=O)(O)O[C@H]3O[C@@H]([C@@H](O)CO)[C@H](F)[C@H]3O)[C@@H](O)[C@H]2O)c(=O)[nH]1 | 861 | 5.7 | 0.0054 | – | –
2 | O=c1ccn([C@@H]2O[C@H](COP(=O)(O)OP(=O)(O)O[C@H]3O[C@@H]([C@@H](O)CF)[C@H](O)[C@H]3O)[C@@H](O)[C@H]2O)c(=O)[nH]1 | 24000 | 7.4 | 0.00034 | 20 | –
3 | O=c1ccn([C@@H]2O[C@H](COP(=O)(O)OP(=O)(O)O[C@H]3O[C@@H]([C@@H](O)CO)[C@H](O)[C@H]3F)[C@@H](O)[C@H]2O)c(=O)[nH]1 | 65 | 0.033 | 0.00041 | – | –
4 | O=c1ccn([C@@H]2O[C@H](COP(=O)(O)OP(=O)(O)O)[C@@H](O)[C@H]2O)c(=O)[nH]1 [URIDINE_DIPHOSPHATE] | – | – | – | 22 | 14
5 | O=c1ccn([C@@H]2O[C@H](COP(=O)(O)OP(=O)(O)O[C@H]3O[C@@H]([C@@H](O)CO)[C@H](O)[C@H]3O)[C@@H](O)[C@H]2O)c(=O)[nH]1 | 22 | 27 | 1.23 | – | –
6 | O=c1ccn([C@@H]2O[C@H](COP(=O)(O)OP(=O)(O)O[C@H]3O[C@@H](CO)[C@H](O)[C@H]3O)[C@@H](O)[C@H]2O)c(=O)[nH]1 | 600 | 12 | 0.02 | – | –
